Test results reported in patent publication US7049313B2, “ATM inhibitors” (Kudos Pharmaceuticals Ltd., priority 2002, dated 2006).
Entries after “also recorded” stand apart in the source; their conditions may differ.

Assays:
HeLa cells = experiment: Clonogenic survival assay, sensitisation to ionising radiation; type: cell-based, human
Method: (§1) Sensitisation of Cells to Ionising Radiation or DNA Double Strand Break Chemotherapies
(§2) The HeLa line was used for ionising radiation studies while LoVo was used for studies with chemotherapeutic agents. […] After 1 hour, a concentration range of either etoposide (FIG. 2), camptothecin (FIG. 3) or doxorubicin (FIG. 4) was added. […] For all treatments, after a further 16 hours incubation, drug containing media was removed and fresh media added prior to a further incubation of 10 days before the staining of colonies with Giemsa. All compounds were solubilised in DMSO, with a final concentration on cells of no more than 0.1%. Resulting colonies containing >50 cells were counted as positives.

LoVo cells = experiment: Clonogenic survival assay, sensitisation to DNA double strand break chemotherapeutics; type: cell-based, human; settings: 10 μM of compound
Method: as §1, §2

HIV-1 [1] = experiment: HIV-1 based luciferase assay (LUCIA) on Jurkat T-cells; type: cell-based; settings: FIG. 5
HIV-1 [2] = experiment: HIV-1 based LUCIA, all other cell lines tested; settings: Human immunodeficiency virus 1
Text: Retroviral Transductions (LUCIA).

HIV-1 RT = target: T1, HIV-1 RT (Human immunodeficiency virus type 1 group M subtype B, UniProt P04585); experiment: Chemilluminescent HIV-1 reverse transcriptase assay; type: biochemical; settings: FIG. 6
T1 construct: chemilluminescent HIV-1 reverse transcriptase assays
Text: Control RT inhibition using nevirapine (□) is also shown.

HIV-1 HXB2 wild type = experiment: HIV-1 4-day replication assay, wild type strain (p24 antigen ELISA); type: cell-based; settings: for IC50: Human immunodeficiency virus 1, HXB2, 96 h, C8166 T-cells, 4-day replication, p24
Method: (§3) HIV-1 4-day Replication Assays
(§4) C8166 T-cells were washed and infected with HIV-1 (strains HXB2wt and HXB2AZTres, RT amino acid changes 67N, 70R, 215F, 219Q) at low multiplicity of infection for one hour at room temperature. The cells were then washed and distributed (5×10^4 cells/well) in triplicate into the wells of 96-well cell culture plates containing different concentrations of inhibitors. The plates were then incubated at 37° C. for 4 days. The cell-free culture fluid was then harvested and assayed for levels of p24 viral antigen using a commercially available ELISA kit (Murex), according to the manufacturers' instructions. Cytotoxicity was evaluated by distributing (5×10^4 cells/well) uninfected C8166 T-cells into triplicate wells of 96-well cell culture plates containing different concentrations of inhibitor and incubating the plates at 37° C. After 4 days, 25 μl of XTT, which is metabolised by viable but not dead cells was added and the plates incubated for a further 3 hours at 37° C. Finally, the absorbance was read at a wavelength of 450 nm.

HIV-1 HXB2 AZT resistant = experiment: microbe, parasite or virus in culture; type: cell-based; settings: for IC50: Human immunodeficiency virus 1, HXB2, C8166, 96 h, read-out: HIV-1 HXB2 (IC50 μM) AZT resistant
Method: as §3, §4

[3] = Cytotoxicity on uninfected C8166 T-cells (XTT dye reduction); type: cell-based; settings: human, uninfected C8166 T-cells, read-out: 50% cytotoxic concentration (CC50)
Method: as §4

C8166 T-cells = experiment: as above; type: cell-based; settings: 4 days, XTT, FIG. 8C
Method: as §4

ATM = target: T2, ATM (Homo sapiens, UniProt Q13315); experiment: In vitro ATM inhibition assay (phosphorylation of GSTp53N66 on serine 15); type: biochemical
T2 construct: ATM protein was immunoprecipitated from HeLa cell nuclear extract; endogenous in cells; host or cells: HeLa cell nuclear extract (immunoprecipitate)
T2 sequence (Q13315 whole entry): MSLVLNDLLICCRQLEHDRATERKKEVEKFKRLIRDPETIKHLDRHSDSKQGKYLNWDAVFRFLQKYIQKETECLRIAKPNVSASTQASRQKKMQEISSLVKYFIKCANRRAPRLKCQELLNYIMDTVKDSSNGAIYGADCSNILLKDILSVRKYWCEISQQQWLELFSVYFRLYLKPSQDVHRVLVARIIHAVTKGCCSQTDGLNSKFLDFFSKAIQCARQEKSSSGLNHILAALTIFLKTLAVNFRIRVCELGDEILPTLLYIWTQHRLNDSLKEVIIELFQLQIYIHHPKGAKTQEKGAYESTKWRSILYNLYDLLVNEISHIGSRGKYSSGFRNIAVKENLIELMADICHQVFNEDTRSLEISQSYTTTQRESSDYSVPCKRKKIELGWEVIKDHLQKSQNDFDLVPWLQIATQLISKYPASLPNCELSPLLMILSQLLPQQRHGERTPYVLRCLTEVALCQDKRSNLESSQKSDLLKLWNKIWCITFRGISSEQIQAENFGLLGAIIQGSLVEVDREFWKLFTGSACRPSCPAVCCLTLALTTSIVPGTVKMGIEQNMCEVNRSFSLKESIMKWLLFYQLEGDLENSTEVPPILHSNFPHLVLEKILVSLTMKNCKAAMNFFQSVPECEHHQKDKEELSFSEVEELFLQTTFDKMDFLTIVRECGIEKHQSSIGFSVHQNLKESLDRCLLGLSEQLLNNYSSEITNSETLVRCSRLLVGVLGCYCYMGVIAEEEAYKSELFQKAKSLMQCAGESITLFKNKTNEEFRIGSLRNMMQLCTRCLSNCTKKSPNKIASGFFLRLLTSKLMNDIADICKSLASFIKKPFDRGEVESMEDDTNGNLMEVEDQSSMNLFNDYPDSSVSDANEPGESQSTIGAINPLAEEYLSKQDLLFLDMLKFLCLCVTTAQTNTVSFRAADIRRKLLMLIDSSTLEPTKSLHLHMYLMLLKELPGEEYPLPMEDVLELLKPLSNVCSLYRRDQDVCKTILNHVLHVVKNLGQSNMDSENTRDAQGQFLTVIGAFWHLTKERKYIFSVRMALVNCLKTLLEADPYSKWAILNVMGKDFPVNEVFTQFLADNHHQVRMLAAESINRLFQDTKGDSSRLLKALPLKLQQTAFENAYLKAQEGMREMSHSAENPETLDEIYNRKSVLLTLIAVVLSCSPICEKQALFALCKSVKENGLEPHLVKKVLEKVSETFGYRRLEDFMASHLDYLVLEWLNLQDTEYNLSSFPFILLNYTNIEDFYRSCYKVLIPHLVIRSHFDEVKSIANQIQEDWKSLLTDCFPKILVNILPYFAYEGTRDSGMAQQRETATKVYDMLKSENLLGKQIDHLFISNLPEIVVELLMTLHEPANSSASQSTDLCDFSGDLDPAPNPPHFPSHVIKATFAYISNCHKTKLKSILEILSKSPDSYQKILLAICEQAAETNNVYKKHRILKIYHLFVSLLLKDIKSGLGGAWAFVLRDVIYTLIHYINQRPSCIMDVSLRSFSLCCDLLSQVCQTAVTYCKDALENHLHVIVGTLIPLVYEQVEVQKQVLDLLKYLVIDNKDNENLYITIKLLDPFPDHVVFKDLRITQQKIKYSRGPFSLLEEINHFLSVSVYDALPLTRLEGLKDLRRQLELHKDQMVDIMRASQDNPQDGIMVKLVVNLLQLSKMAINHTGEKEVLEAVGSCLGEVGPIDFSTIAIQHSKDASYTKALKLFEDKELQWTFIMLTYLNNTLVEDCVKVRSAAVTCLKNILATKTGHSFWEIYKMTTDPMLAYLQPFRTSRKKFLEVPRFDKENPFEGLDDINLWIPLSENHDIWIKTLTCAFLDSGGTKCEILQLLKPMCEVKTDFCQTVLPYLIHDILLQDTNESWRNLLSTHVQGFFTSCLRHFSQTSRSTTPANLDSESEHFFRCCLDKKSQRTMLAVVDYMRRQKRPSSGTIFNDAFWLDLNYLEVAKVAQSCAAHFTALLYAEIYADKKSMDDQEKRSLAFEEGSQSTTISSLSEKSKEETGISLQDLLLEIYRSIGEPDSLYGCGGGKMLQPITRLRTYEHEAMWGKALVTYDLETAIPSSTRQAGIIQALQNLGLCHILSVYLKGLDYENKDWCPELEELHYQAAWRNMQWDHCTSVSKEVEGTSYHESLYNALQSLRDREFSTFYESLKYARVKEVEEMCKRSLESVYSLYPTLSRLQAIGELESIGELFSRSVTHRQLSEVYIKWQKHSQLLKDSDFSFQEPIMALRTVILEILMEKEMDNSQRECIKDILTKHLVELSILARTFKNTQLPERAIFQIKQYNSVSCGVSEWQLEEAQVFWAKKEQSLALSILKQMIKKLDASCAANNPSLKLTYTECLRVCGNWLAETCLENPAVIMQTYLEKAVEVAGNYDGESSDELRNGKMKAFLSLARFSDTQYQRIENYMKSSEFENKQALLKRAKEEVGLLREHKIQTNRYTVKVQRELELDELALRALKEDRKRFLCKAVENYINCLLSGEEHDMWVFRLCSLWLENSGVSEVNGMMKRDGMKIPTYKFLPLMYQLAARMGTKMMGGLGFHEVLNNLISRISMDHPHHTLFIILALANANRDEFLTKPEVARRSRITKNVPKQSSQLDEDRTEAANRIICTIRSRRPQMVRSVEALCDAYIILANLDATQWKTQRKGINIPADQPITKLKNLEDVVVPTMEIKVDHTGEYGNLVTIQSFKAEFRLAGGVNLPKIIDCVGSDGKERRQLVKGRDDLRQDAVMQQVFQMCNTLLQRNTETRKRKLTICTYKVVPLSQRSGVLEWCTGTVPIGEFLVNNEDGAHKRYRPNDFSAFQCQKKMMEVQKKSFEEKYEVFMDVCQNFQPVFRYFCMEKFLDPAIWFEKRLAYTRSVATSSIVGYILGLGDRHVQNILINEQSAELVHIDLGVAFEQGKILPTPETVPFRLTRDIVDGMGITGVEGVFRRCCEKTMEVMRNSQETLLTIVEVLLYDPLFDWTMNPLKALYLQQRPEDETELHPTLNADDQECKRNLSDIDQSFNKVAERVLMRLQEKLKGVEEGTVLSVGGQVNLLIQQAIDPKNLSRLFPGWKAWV

**Q.** Which results are given for `O=c1cc(-c2cccc3c2Sc2ccccc2S3)oc(N2CCOCC2)c1` [Compound 4, 2-Thianthren-1-yl-6-morpholin-4-yl-pyran-4-one]?
**A.** sensitisation of cells to ionising radiation (% survival) (HeLa cells; HeLa cells, compound at 0.5 μM and 2 μM, FIG. 1): can sensitise cells to ionising radiation; sensitising tumour derived cell lines to DNA double strand break inducing agents (HeLa cells; summary of FIGS. 1–4 (HeLa and LoVo)): significant effect on sensitising tumour derived cell lines to DNA double strand break inducing agents; sensitisation of cells to etoposide (% survival) (LoVo cells; FIG. 2): can sensitise cells to etopside; sensitisation of cells to camptothecin (% survival) (LoVo cells; FIG. 3): can sensitise cells to camptothecin; sensitisation of cells to doxorubicin (% survival) (LoVo cells; FIG. 4): can sensitise cells to doxorubicin; IC50 (HIV-1 [1]; Human immunodeficiency virus 1, Jurkat, read-out: IC50 in HIV-1 based LUCIA, Jurkat T-cells): ~1000 nM; inhibition of retroviral vector transduction (LUCIA) (HIV-1 [1]; Jurkat T-cells): can inhibit recombinant retroviral vector infections; also recorded: efficiently inhibit HIV-1 LUCIA at low micromolar concentrations; IC50 (HIV-1 [2]): 1000 to 10000 nM; inhibition of HIV-1 RT (HIV-1 RT): does not inhibit HIV-1 RT; inhibition of HIV-1 replication (HIV-1 HXB2 wild type; 4-day replication assays, FIG. 8): inhibits HIV-1 replication; IC50 (HIV-1 HXB2 wild type): 0.1 µM; inhibition of HIV-1 replication, wild-type versus AZT resistant strain (HIV-1 HXB2 AZT resistant; 4-day replication assays, FIG. 8A, 8B): inhibits HIV-1 replication equally well in both wild-type and AZT resistant HIV-1 strains; also recorded: inhibited HIV-1 replication equally well; IC50 (HIV-1 HXB2 AZT resistant): 0.06 µM; CC50 at 4 days [3]: > 20000 nM; cytotoxicity (percentage of viable cells) (C8166 T-cells): No significant cytotoxicity; also recorded: no significant cytotoxic effects

**Q.** What does the source list for `Cc1cn([C@H]2C[C@H](N=[N+]=[N-])[C@@H](CO)O2)c(=O)[nH]c1=O` [AZT, 3′-azido-3′-deoxythymidine, reference compound]?
**A.** IC50 (HIV-1 HXB2 wild type): 0.002 µM; IC50 (HIV-1 HXB2 AZT resistant): 0.05 µM

**Q.** For `CC(C)NC(=O)c1ccc2c(c1)Sc1cccc(-c3cc(=O)cc(N4CCOCC4)o3)c1S2` [Compound 146], which IC50 (ATM) is on record?
**A.** < 200 nM

**Q.** For `CC(C)(C)OC(=O)Nc1ccc2c(c1)Cc1cccc(-c3cc(=O)cc(N4CCOCC4)o3)c1S2` [Compound 19, [5-(6-Morpholin-4-yl-4-oxo-4H-pyran-2-yl)-9H-thioxanthen-2-yl]-carbamic acid tert-butyl ester], which IC50 (ATM) is on record?
**A.** < 200 nM

**Q.** Which IC50 (ATM) does the source give for `O=c1cc(-c2ccc(F)c3c(=O)c4ccccc4sc23)oc(N2CCOCC2)c1` [Compound 13, 2-(1-Fluoro-9-oxo-9H-thioxanthen-4-yl)-6-morpholin-4-yl-pyran-4-one] here?
**A.** < 20000 nM

**Q.** With `O=C(Nc1ccc(-c2cc(=O)cc(N3CCOCC3)o2)c2c1Cc1ccccc1S2)c1ccc[nH]1` [Compound 128] as the compound, how does the IC50 (ATM) read?
**A.** < 200 nM

**Q.** With `O=C(Nc1ccc2c(c1)Cc1cccc(-c3cc(=O)cc(N4CCOCC4)o3)c1S2)c1csc(-c2cccs2)n1` [Compound 46] as the compound, how does the IC50 (ATM) read?
**A.** < 200 nM

**Q.** For `CN(C)c1ccc(CNC(=O)c2ccc3c(c2)Sc2cccc(-c4cc(=O)cc(N5CCOCC5)o4)c2S3)cc1` [Compound 169], which IC50 (ATM) is on record?
**A.** < 200 nM

**Q.** For `CN1CCCN(CC(=O)Nc2ccc3c(c2)Cc2cccc(-c4cc(=O)cc(N5CCOCC5)o4)c2S3)CC1` [Compound 59], which IC50 (ATM) is on record?
**A.** < 200 nM

**Q.** For `COC(=O)CC(=O)Nc1ccc2c(c1)Cc1cccc(-c3cc(=O)cc(N4CCOCC4)o3)c1S2` [Compound 23], which IC50 (ATM) is on record?
**A.** < 200 nM

**Q.** For `COC(=O)CCCC(=O)Nc1ccc2c(c1)Cc1cccc(-c3cc(=O)cc(N4CCOCC4)o3)c1S2` [Compound 25], which IC50 (ATM) is on record?
**A.** < 200 nM
